# Test results published in patent US10131702B2, “Glucagon-GLP-1-GIP triple agonist compounds” (priority 2013, dated 2018).
# Read-outs that look alike come from different tables or passages of the source. Numbered stars: 1 amine (or outer) side, 2 acyl side, 3 side chain; on linkers, the order of the positions; unused ones are H or OH. Square brackets hold non-standard residues; d marks the D form. Side chains are listed from the residue outwards. Peptide text beside a SMILES is read from it. * marks the point of attachment. C18 diacid = O=C(O)CCCCCCCCCCCCCCCCC(=O)*; γGlu = O=C(O)[C@H](CCC(=O)[*:2])N[*:1]; AEEA = NCCOCCOCC(=O)O; Aib = CC(C)(N)C(=O)O
# What was measured:
# Format in all cases: cell-based
# [1] = biological target: T1, human GIP R (Homo sapiens, UniProt P48546); test: cAMP induction in HEK293 cells expressing human GIP R (AlphaScreen cAMP kit)
# T1 construct: expressed in transfected cells
# T1 sequence (P48546 22-466): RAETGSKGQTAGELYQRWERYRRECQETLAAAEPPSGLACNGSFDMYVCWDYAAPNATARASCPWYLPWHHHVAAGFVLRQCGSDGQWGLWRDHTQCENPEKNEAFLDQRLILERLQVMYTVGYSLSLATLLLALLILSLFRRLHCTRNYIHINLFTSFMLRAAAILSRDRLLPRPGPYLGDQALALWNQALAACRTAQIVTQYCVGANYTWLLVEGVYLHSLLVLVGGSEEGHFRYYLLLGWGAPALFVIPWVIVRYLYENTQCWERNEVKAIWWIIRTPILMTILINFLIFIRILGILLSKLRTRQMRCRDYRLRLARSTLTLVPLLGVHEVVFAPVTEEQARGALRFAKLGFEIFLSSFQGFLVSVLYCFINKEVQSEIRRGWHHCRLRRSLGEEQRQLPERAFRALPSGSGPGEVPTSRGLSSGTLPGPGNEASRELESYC
# Protocol: (§1) Briefly, HEK293 cells expressing the human GIP R, GLP-1 R or GCG R (stable cell lines generated through transfection of the cDNA for human GIP R, GLP-1 R or GCG R and selection of stable clones) were seeded at 30,000 cells/well in 96-well microtiter plates coated with 0.01% poly-L-lysine, and grown for 1 day in culture in 200 μl growth medium (DMEM, 10% FCS, Penicillin (100 IU/ml), Streptomycin (100 μg/ml)). On the day of analysis, growth medium was removed and the cells were washed once with 150 μl Tyrode's buffer (Tyrode's Salts (9.6 g/l), 10 mM HEPES, pH 7.4). […] The Assay buffer was removed and cells are lysed in 80 μl Lysis buffer (0.1% w/v BSA, 5 mM HEPES, 0.3% v/v Tween-20) per well. From each well 10 μl of lysed cells were transferred to a 384-well plate and mixed with 15 μl bead-mix (1 Unit/15 μl anti-cAMP Acceptor Beads, 1 Unit/15 μl Donor Beads, and 1 Unit/15 μl Biotinylated cAMP in Assay Buffer). The plates were mixed and incubated in the dark for an hour at room temperature before measuring using an Envision™ plate reader (Perkin-Elmer).
# (§2) The resulting cAMP curves were plotted as absolute cAMP concentrations (nM) over log (test compound concentration) and analyzed using the curve fitting program XLfit.
# (§3) Parameters calculated to describe both the potency as well as the agonistic activity of each test compound on the receptors were:
# (§4) EC50, a concentration resulting in a half-maximal elevation of cAMP levels, reflecting the potency of the test compound.
# [2] = biological target: T2, human GLP-1 R (Homo sapiens, UniProt P43220); test: cAMP induction in HEK293 cells expressing human GLP-1 R (AlphaScreen cAMP kit); settings: average EC50, cAMP, HEK293 cells expressing human GLP-1 R, read-out: GLP1 R (EC50 in nM)
# T2 construct: expressed in transfected cells
# T2 sequence (P43220 24-463): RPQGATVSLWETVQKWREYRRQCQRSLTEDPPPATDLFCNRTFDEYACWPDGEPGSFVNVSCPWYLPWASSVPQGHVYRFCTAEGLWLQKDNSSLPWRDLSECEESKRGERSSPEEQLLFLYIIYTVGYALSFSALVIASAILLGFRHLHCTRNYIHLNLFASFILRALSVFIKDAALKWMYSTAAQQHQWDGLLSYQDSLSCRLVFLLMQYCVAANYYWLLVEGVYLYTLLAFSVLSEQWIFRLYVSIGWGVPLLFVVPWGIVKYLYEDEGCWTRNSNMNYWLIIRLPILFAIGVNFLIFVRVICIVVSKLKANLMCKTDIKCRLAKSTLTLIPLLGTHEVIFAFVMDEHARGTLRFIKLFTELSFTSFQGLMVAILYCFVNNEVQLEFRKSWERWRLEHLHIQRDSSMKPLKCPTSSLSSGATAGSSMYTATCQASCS
# Protocol: as §1, §2, §3, §4
# [3] = biological target: T3, human GCG R (Homo sapiens, UniProt P47871); test: cAMP induction in HEK293 cells expressing human GCG R (AlphaScreen cAMP kit)
# T3 construct: expressed in transfected cells
# T3 sequence (P47871 26-477): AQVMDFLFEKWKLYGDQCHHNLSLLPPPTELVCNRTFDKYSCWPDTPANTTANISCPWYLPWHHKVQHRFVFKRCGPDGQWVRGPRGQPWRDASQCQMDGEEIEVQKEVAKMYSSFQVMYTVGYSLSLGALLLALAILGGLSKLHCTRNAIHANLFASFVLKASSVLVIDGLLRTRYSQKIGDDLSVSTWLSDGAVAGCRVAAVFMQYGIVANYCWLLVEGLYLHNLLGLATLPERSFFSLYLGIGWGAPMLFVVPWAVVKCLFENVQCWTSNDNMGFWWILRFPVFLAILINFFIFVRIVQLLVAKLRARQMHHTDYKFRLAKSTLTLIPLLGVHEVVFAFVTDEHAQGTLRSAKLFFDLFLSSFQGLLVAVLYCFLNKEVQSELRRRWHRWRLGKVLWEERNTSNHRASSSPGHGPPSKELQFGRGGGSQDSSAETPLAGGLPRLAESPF
# Protocol: as §1, §2, §3, §4
# [4] = GIP R (EC50 in nM), Table 2, average EC50, cAMP
# [5] = GIP R (EC50 in nM), Table 2b (most comprehensive data), average EC50, cAMP
# [6] = Table 2b (most comprehensive data)
compound,measurement,setting,value
CC[C@H](C)[C@H](NC(=O)[C@H](CO)NC(=O)[C@H](Cc1ccc(O)cc1)NC(=O)[C@H](CC(=O)O)NC(=O)[C@H](CO)NC(=O)[C@@H](NC(=O)[C@H](Cc1ccccc1)NC(=O)[C@@H](NC(=O)CNC(=O)[C@H](CCC(N)=O)NC(=O)C(C)(C)NC(=O)[C@@H](N)Cc1ccc(O)cc1)[C@@H](C)O)[C@@H](C)O)C(=O)N[C@@H](Cc1ccc(O)cc1)C(=O)N[C@@H](CC(C)C)C(=O)N[C@@H](CC(=O)O)C(=O)N[C@@H](CCC(=O)O)C(=O)N[C@@H](CCCCN)C(=O)N[C@@H](C)C(=O)N[C@@H](C)C(=O)N[C@@H](CCCCN)C(=O)N[C@@H](CC(=O)O)C(=O)N[C@@H](Cc1ccccc1)C(=O)N[C@H](C(=O)N[C@@H](CCC(=O)O)C(=O)N[C@@H](Cc1c[nH]c2ccccc12)C(=O)N[C@@H](CC(C)C)C(=O)N[C@@H](CC(C)C)C(=O)N[C@@H](CO)C(=O)N[C@@H](C)C(N)=O)C(C)C [Compound 17] (HELM PEPTIDE1{Y.[Aib].Q.G.T.F.T.S.D.Y.S.I.Y.L.D.E.K.A.A.K.D.F.V.E.W.L.L.S.A.[am]}$$$$V2.0),EC50,[1]; [4],0.091 nM
same,EC50,[1]; [5],0.013 nM
same,EC50,[2]; Table 2,0.011 nM
same,EC50,[2]; [6],0.16 nM
same,EC50,[3],0.16 nM
CC(C)C[C@H](NC(=O)[C@H](C)NC(=O)[C@H](CCCCN)NC(=O)[C@H](CO)NC(=O)[C@H](Cc1ccc(O)cc1)NC(=O)[C@H](CC(=O)O)NC(=O)[C@H](CO)NC(=O)[C@@H](NC(=O)[C@H](Cc1ccccc1)NC(=O)[C@@H](NC(=O)CNC(=O)[C@H](CCC(N)=O)NC(=O)C(C)(C)NC(=O)[C@@H](N)Cc1ccc(O)cc1)[C@@H](C)O)[C@@H](C)O)C(=O)N[C@@H](CC(=O)O)C(=O)N[C@@H](CCC(=O)O)C(=O)N[C@@H](CCCCN)C(=O)N[C@@H](C)C(=O)N[C@@H](C)C(=O)N[C@@H](CCCCN)C(=O)N[C@@H](CCC(=O)O)C(=O)N[C@@H](Cc1ccccc1)C(=O)N[C@H](C(=O)N[C@@H](CCC(=O)O)C(=O)N[C@@H](Cc1c[nH]c2ccccc12)C(=O)N[C@@H](CC(C)C)C(=O)N[C@@H](CC(C)C)C(=O)N[C@@H](CO)C(=O)N[C@@H](C)C(N)=O)C(C)C [Compound 21] (HELM PEPTIDE1{Y.[Aib].Q.G.T.F.T.S.D.Y.S.K.A.L.D.E.K.A.A.K.E.F.V.E.W.L.L.S.A.[am]}$$$$V2.0),EC50,[1]; [4],0.18 nM
same,EC50,[1]; [5],0.015 nM
same,EC50,[2]; Table 2,0.014 nM
same,EC50,[2]; [6],0.1 nM
same,EC50,[3],0.1 nM
CC(C)C[C@H](NC(=O)[C@H](C)NC(=O)[C@H](CCCCN)NC(=O)[C@H](CO)NC(=O)[C@H](Cc1ccc(O)cc1)NC(=O)[C@H](CC(=O)O)NC(=O)[C@H](CO)NC(=O)[C@@H](NC(=O)[C@H](Cc1ccccc1)NC(=O)[C@@H](NC(=O)CNC(=O)[C@H](CCC(N)=O)NC(=O)C(C)(C)NC(=O)[C@@H](N)Cc1ccc(O)cc1)[C@@H](C)O)[C@@H](C)O)C(=O)N[C@@H](CC(=O)O)C(=O)N[C@@H](CO)C(=O)N[C@@H](CCCCN)C(=O)N[C@@H](C)C(=O)N[C@@H](C)C(=O)N[C@@H](Cc1c[nH]cn1)C(=O)N[C@@H](CC(=O)O)C(=O)N[C@@H](Cc1ccccc1)C(=O)N[C@H](C(=O)N[C@@H](CCC(=O)O)C(=O)N[C@@H](Cc1c[nH]c2ccccc12)C(=O)N[C@@H](CC(C)C)C(=O)N[C@@H](CC(C)C)C(=O)N[C@@H](CO)C(=O)N[C@@H](C)C(N)=O)C(C)C [Compound 7] (HELM PEPTIDE1{Y.[Aib].Q.G.T.F.T.S.D.Y.S.K.A.L.D.S.K.A.A.H.D.F.V.E.W.L.L.S.A.[am]}$$$$V2.0),EC50,[1]; [4],0.42 nM
same,EC50,[2]; Table 2,0.031 nM
same,EC50,[3],0.086 nM
CC[C@H](C)[C@H](NC(=O)[C@H](CO)NC(=O)[C@H](Cc1ccc(O)cc1)NC(=O)[C@H](CC(=O)O)NC(=O)[C@H](CO)NC(=O)[C@@H](NC(=O)[C@H](Cc1ccccc1)NC(=O)[C@@H](NC(=O)CNC(=O)[C@H](CCC(N)=O)NC(=O)C(C)(C)NC(=O)[C@@H](N)Cc1ccc(O)cc1)[C@@H](C)O)[C@@H](C)O)C(=O)N[C@@H](Cc1ccc(O)cc1)C(=O)N[C@@H](CC(C)C)C(=O)N[C@@H](CCC(=O)O)C(=O)N[C@@H](CCCCN)C(=O)N[C@@H](CCCCNC(=O)COCCOCCNC(=O)COCCOCCNC(=O)CC[C@H](NC(=O)CCCCCCCCCCCCCCCCC(=O)O)C(=O)O)C(=O)N[C@@H](C)C(=O)N[C@@H](C)C(=O)N[C@@H](CCCCN)C(=O)N[C@@H](CCC(=O)O)C(=O)N[C@@H](Cc1ccccc1)C(=O)N[C@H](C(=O)N[C@@H](CCC(=O)O)C(=O)N[C@@H](Cc1c[nH]c2ccccc12)C(=O)N[C@@H](CC(C)C)C(=O)N[C@@H](CC(C)C)C(=O)N[C@@H](CO)C(=O)N[C@@H](C)C(=O)NCC(=O)N1CCC[C@H]1C(=O)N[C@@H](CO)C(=O)N[C@@H](CO)C(=O)NCC(=O)N[C@@H](C)C(=O)N1CCC[C@H]1C(=O)N1CCC[C@H]1C(=O)N1CCC[C@H]1C(=O)N[C@@H](CO)C(N)=O)C(C)C [Compound 38] (H-Y[Aib]QGTFTSDYSIYLEKK([AEEA-AEEA-γGlu-C18 diacid])AAKEFVEWLLSAGPSSGAPPPS-NH2),EC50,"[1]; Table 2b (most comprehensive data), average EC50, cAMP, read-out: GIP R (EC50 in nM)",0.064 nM
same,EC50,[2]; [6],0.015 nM
same,EC50,"[3]; Table 2b (most comprehensive data), average EC50, cAMP, HEK293 cells expressing human GCG R, read-out: GCG R (EC50 in nM)",0.27 nM
CC(C)C[C@H](NC(=O)[C@H](CC(C)C)NC(=O)[C@H](Cc1c[nH]c2ccccc12)NC(=O)[C@H](CCC(=O)O)NC(=O)[C@@H](NC(=O)[C@H](Cc1ccccc1)NC(=O)[C@H](CC(=O)O)NC(=O)[C@H](CCCNC(=N)N)NC(=O)[C@H](C)NC(=O)[C@H](C)NC(=O)[C@H](CCCCN)NC(=O)[C@H](CO)NC(=O)[C@H](CC(=O)O)NC(=O)[C@H](CC(C)C)NC(=O)[C@H](Cc1ccc(O)cc1)NC(=O)[C@H](CCCCN)NC(=O)[C@H](CO)NC(=O)[C@H](Cc1ccc(O)cc1)NC(=O)[C@H](CC(=O)O)NC(=O)[C@H](CO)NC(=O)[C@@H](NC(=O)[C@H](Cc1ccccc1)NC(=O)[C@@H](NC(=O)CNC(=O)[C@H](CCC(N)=O)NC(=O)C(C)(C)NC(=O)[C@@H](N)Cc1ccc(O)cc1)[C@@H](C)O)[C@@H](C)O)C(C)C)C(=O)N[C@@H](CO)C(=O)N[C@@H](C)C(N)=O [Compound 6] (HELM PEPTIDE1{Y.[Aib].Q.G.T.F.T.S.D.Y.S.K.Y.L.D.S.K.A.A.R.D.F.V.E.W.L.L.S.A.[am]}$$$$V2.0),EC50,[1]; [4],0.34 nM
same,EC50,[1]; [5],0.01 nM
same,EC50,[2]; Table 2,0.0095 nM
same,EC50,[3],0.018 nM
CC[C@H](C)[C@H](NC(=O)[C@H](CO)NC(=O)[C@H](Cc1ccc(O)cc1)NC(=O)[C@H](CC(=O)O)NC(=O)[C@H](CO)NC(=O)[C@@H](NC(=O)[C@H](Cc1ccccc1)NC(=O)[C@@H](NC(=O)CNC(=O)[C@H](CCC(N)=O)NC(=O)C(C)(C)NC(=O)[C@@H](N)Cc1ccc(O)cc1)[C@@H](C)O)[C@@H](C)O)C(=O)N[C@@H](Cc1ccc(O)cc1)C(=O)N[C@@H](CC(C)C)C(=O)N[C@@H](CCC(=O)O)C(=O)N[C@@H](CO)C(=O)N[C@@H](CCCCN)C(=O)N[C@@H](C)C(=O)N[C@@H](C)C(=O)N[C@@H](Cc1c[nH]cn1)C(=O)N[C@@H](CC(=O)O)C(=O)N[C@@H](Cc1ccccc1)C(=O)N[C@H](C(=O)N[C@@H](CCC(=O)O)C(=O)N[C@@H](Cc1c[nH]c2ccccc12)C(=O)N[C@@H](CC(C)C)C(=O)N[C@@H](CC(C)C)C(=O)N[C@@H](CO)C(=O)N[C@@H](C)C(N)=O)C(C)C [Compound 18] (HELM PEPTIDE1{Y.[Aib].Q.G.T.F.T.S.D.Y.S.I.Y.L.E.S.K.A.A.H.D.F.V.E.W.L.L.S.A.[am]}$$$$V2.0),EC50,[1]; [4],0.07 nM
same,EC50,[2]; Table 2,0.021 nM
same,EC50,[2]; [6],0.15 nM
same,EC50,[3],0.15 nM
CC[C@H](C)[C@H](NC(=O)[C@H](CO)NC(=O)[C@H](Cc1ccc(O)cc1)NC(=O)[C@H](CC(=O)O)NC(=O)[C@H](CO)NC(=O)[C@@H](NC(=O)[C@H](Cc1ccccc1)NC(=O)[C@@H](NC(=O)CNC(=O)[C@H](CCC(N)=O)NC(=O)C(C)(C)NC(=O)[C@@H](N)Cc1ccc(O)cc1)[C@@H](C)O)[C@@H](C)O)C(=O)N[C@@H](Cc1ccc(O)cc1)C(=O)N[C@@H](CC(C)C)C(=O)N[C@@H](CC(=O)O)C(=O)N[C@@H](CCC(=O)O)C(=O)N[C@@H](CCCCN)C(=O)N[C@@H](C)C(=O)N[C@@H](C)C(=O)N[C@@H](Cc1c[nH]cn1)C(=O)N[C@@H](CC(=O)O)C(=O)N[C@@H](Cc1ccccc1)C(=O)N[C@H](C(=O)N[C@@H](CCC(=O)O)C(=O)N[C@@H](Cc1c[nH]c2ccccc12)C(=O)N[C@@H](CC(C)C)C(=O)N[C@@H](CC(C)C)C(=O)N[C@@H](CO)C(=O)N[C@@H](C)C(N)=O)C(C)C [Compound 9] (HELM PEPTIDE1{Y.[Aib].Q.G.T.F.T.S.D.Y.S.I.Y.L.D.E.K.A.A.H.D.F.V.E.W.L.L.S.A.[am]}$$$$V2.0),EC50,[1]; [4],0.056 nM
same,EC50,[2]; Table 2,0.0055 nM
same,EC50,[3],0.097 nM
